Experimental data as given in PubChem BioAssay (NCI).
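Five concentrations, 48 hours, 96-well plates. GI50 = concentration required for 50% inhibition of growth. Definition used: TGI = concentration required for complete inhibition of growth.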

Assays:
Assay in all cases: inhibition of tumour cell growth, NCI panel, 48 h
786-0 renal = tested on: 786-0 renal
HCT-15 colon = tested on: HCT-15 colon
LOX IMVI melanoma = tested on: LOX IMVI melanoma
OVCAR-5 ovarian = tested on: OVCAR-5 ovarian
SN12C renal = tested on: SN12C renal
SNB-19 CNS = tested on: SNB-19 CNS
SR leukemia = tested on: SR leukemia
UACC-62 melanoma = tested on: UACC-62 melanoma
UO-31 renal = tested on: UO-31 renal
MCF7 breast = tested on: MCF7 breast

Structure (SMILES) | TGI (786-0 renal) | TGI (HCT-15 colon) | TGI (LOX IMVI melanoma) | TGI (OVCAR-5 ovarian) | TGI (SN12C renal) | TGI (SNB-19 CNS) | TGI (SR leukemia) | TGI (UACC-62 melanoma) | TGI (UO-31 renal) | GI50 (786-0 renal) | GI50 (HCT-15 colon) | GI50 (LOX IMVI melanoma) | GI50 (MCF7 breast) | TGI (MCF7 breast) | GI50 (OVCAR-5 ovarian) | GI50 (SN12C renal) | GI50 (SNB-19 CNS) | GI50 (UACC-62 melanoma) | GI50 (UO-31 renal) | GI50 (SR leukemia)
NNC(=O)CCC(=O)Nc1cc(Cl)c(Cl)cc1Cl | > 100 µM | > 100 µM | > 100 µM | > 100 µM | > 100 µM | > 100 µM | > 100 µM | > 100 µM | > 100 µM | – | – | – | – | – | – | – | – | – | – | –
COc1ccc(C2=NN(C(=O)COc3ccc(Cl)cc3)C(O)(c3ccc(Cl)cc3)C2)cc1 (configuration not stated) | > 100 µM | > 100 µM | > 100 µM | > 100 µM | > 100 µM | > 100 µM | – | > 100 µM | > 100 µM | – | – | – | – | – | – | – | – | – | – | –
CC(C)[C@@]12C[C@@H](OC(=O)COC(=O)/C=C/c3ccccc3)[C@@](C)(O1)[C@@H]1CC[C@@H](C)[C@H]1[C@@H]2OC(=O)/C=C/c1ccccc1 | > 100 µM | > 100 µM | > 100 µM | > 100 µM | > 100 µM | > 100 µM | – | > 100 µM | 0.216 µM | > 27.1 µM | > 100 µM | > 100 µM | > 100000 nM | > 100 µM | > 100 µM | 1420 nM | > 100 µM | > 100 µM | 65.6 nM | –
COCC1N=C(c2cc(OC)c(OC)c(OC)c2-c2cc3c(cc2C2OCCCO2)OCO3)O[C@H]1c1ccccc1 (some centres not stated) | > 100 µM | > 100 µM | > 100 µM | > 100 µM | > 100 µM | > 100 µM | – | > 100 µM | > 100 µM | – | – | – | – | – | – | – | – | – | – | –
CC1CC(c2cccc3c2OCO3)=Nc2ccccc2S1 (configuration not stated) | > 100 µM | > 100 µM | > 100 µM | > 100 µM | > 100 µM | > 100 µM | – | > 100 µM | > 100 µM | – | – | – | – | – | – | – | – | – | – | –
CC(/C(=N/NC(=O)C(N)=O)c1c(Cl)ccc(Cl)c1O)C1(O)C(=O)Nc2ccccc21 (configuration not stated) | > 100 µM | > 100 µM | > 100 µM | > 100 µM | > 100 µM | > 100 µM | – | > 100 µM | > 100 µM | – | – | – | – | – | – | – | – | – | – | –
CS(=O)(=O)OCCn1cnc2nc(NC(=O)c3ccccc3)[nH]c(=O)c21 | > 100 µM | > 100 µM | > 100 µM | > 100 µM | > 100 µM | > 100 µM | > 100 µM | > 100 µM | > 100 µM | – | – | – | – | – | – | – | – | – | – | –
CC1=C(C(=O)Nc2cccc(Cl)c2)C(c2ccc([N+](=O)[O-])cc2)C(C(=O)Nc2cccc(Cl)c2)=C(C)N1 | 69.6 µM | 79.8 µM | 28.8 µM | > 100 µM | 75.8 µM | > 100 µM | – | 37.2 µM | 65.4 µM | – | – | – | – | – | – | – | – | – | – | –
O=c1[nH]nc2ccccc2c1Cl | 28.4 µM | 25.3 µM | 37.5 µM | 33.9 µM | 34.2 µM | 30.5 µM | – | 25.6 µM | 28.2 µM | – | – | – | – | – | – | – | – | – | – | –
CCOC(=O)C1=C(NNC(=O)Cc2ccccc2)CSC1=Nc1ccccc1 | > 100 µM | > 100 µM | > 100 µM | > 100 µM | > 100 µM | > 100 µM | > 100 µM | > 100 µM | > 100 µM | – | – | – | – | – | – | – | – | – | – | –
C=C1C(=O)OC2C1CC[C@H](C)C13OC(=O)CC1[C@@]23C (some centres not stated) | > 100 µM | – | – | > 100 µM | > 100 µM | > 100 µM | > 100 µM | > 100 µM | > 100 µM | – | – | – | – | – | – | – | – | – | – | –
O=c1c(Sc2c(O)c3ccccc3c3ccccc3c2=O)c(O)c2ccccc2c2ccccc12 | > 100 µM | > 100 µM | 66.5 µM | > 100 µM | > 100 µM | > 100 µM | – | > 100 µM | > 100 µM | – | – | – | – | – | – | – | – | – | – | –
Cn1ccc2c(c1=O)C(=O)c1nccc3c1c-2nc1ccccc13 | 3.18 µM | 3.46 µM | 2.81 µM | 3.46 µM | 3.03 µM | 3.03 µM | – | 2.93 µM | 3.21 µM | 1.64 µM | 1.56 µM | 1.4 µM | 871 nM | 2.34 µM | 1.92 µM | 1560 nM | 1.59 µM | 1.54 µM | 1550 nM | –
Fc1cccc2cc3ccc4cccc5ccc(c12)c3c45 | > 100 µM | – | > 100 µM | > 100 µM | > 100 µM | > 100 µM | – | > 100 µM | > 100 µM | – | – | – | – | – | – | – | – | – | – | –
CC(=O)Nc1ccc(/C=N\N2C(=O)c3ccccc3C2=O)cc1 | > 100 µM | > 100 µM | > 100 µM | > 100 µM | > 100 µM | > 100 µM | > 100 µM | > 100 µM | > 100 µM | – | – | – | – | – | – | – | – | – | – | –
CN(C)CCNC(=O)c1ccc(C(=O)NCCN(C)C)c2nc3ccccc3cc12 | 13.8 µM | 16.9 µM | 3.15 µM | 3.78 µM | 8.96 µM | 11.3 µM | 2.49 µM | 2.38 µM | 18 µM | – | – | – | – | – | – | – | – | – | – | –
N#Cc1c(N)nc(N2CCOCC2)c(C#N)c1-c1ccc(Cl)cc1 | > 100 µM | > 100 µM | > 100 µM | > 100 µM | > 100 µM | > 100 µM | – | > 100 µM | – | 70.7 µM | 26.9 µM | 29.2 µM | 23200 nM | > 100 µM | 80.4 µM | 50900 nM | 28.1 µM | 23 µM | – | –
CCCCCCCCC(=O)N(C)C1C2CN3CCC(O2)C13 (configuration not stated) | > 100 µM | > 100 µM | > 100 µM | > 100 µM | > 100 µM | > 100 µM | – | > 100 µM | > 100 µM | – | – | – | – | – | – | – | – | – | – | –
[C-]#[O+].[C-]#[O+].[C-]#[O+].[C-]#[O+].[Ir].[Ir].[O-]c1ccc2ccccc2c1C=Nc1ccc(N=Cc2c([O-])ccc3ccccc23)cc1 | > 100 µM | > 100 µM | > 100 µM | > 100 µM | > 100 µM | > 100 µM | > 100 µM | > 100 µM | > 100 µM | 46.3 µM | > 100 µM | > 100 µM | – | – | > 100 µM | > 100000 nM | 63.6 µM | > 100 µM | > 100000 nM | > 100 µM
CCN(CCNc1ccc(C)c2sc3cc(Cl)ccc3c(=O)c12)CC(C)O (configuration not stated) | 2.75 µM | 5.85 µM | 3.72 µM | – | 10.5 µM | 3.66 µM | – | 3.44 µM | – | 1.44 µM | 2.33 µM | 1.85 µM | 1500 nM | 3.01 µM | – | 2760 nM | 1.65 µM | 1.82 µM | – | –
